O=c1c2ccccc2sc2ccccc12
Details	solubility (mole fraction)
in 1,4-dioxane, 292.15 K	0.00919
in 1,4-dioxane, 297.05 K	0.01
in 1,4-dioxane, 302.05 K	0.0109
in 1,4-dioxane, 305.05 K	0.0115
in 1,4-dioxane, 307.95 K	0.0121
in 1,4-dioxane, 311.15 K	0.0127
in 1,4-dioxane, 313.85 K	0.0134
in 1,4-dioxane, 316.85 K	0.0141
in 1,4-dioxane, 319.35 K	0.0146
in 1,4-dioxane, 322.55 K	0.0153
in 1,4-dioxane, 326.55 K	0.0163
in 1,4-dioxane, 331.55 K	0.0175
in 1,4-dioxane, 335.95 K	0.0186
in 2-butanone, 292.15 K	0.00309
in 2-butanone, 297.05 K	0.00398
in 2-butanone, 301.95 K	0.00441
in 2-butanone, 306.65 K	0.00519
in 2-butanone, 311.25 K	0.00604
in 2-butanone, 316.15 K	0.00696
in 2-butanone, 321.25 K	0.00805
in 2-butanone, 326.55 K	0.00947
in 2-butanone, 331.55 K	0.0111
in 2-butanone, 335.95 K	0.0124
in THF, 292.15 K	0.00867
in THF, 297.05 K	0.0101
in THF, 301.95 K	0.0114
in THF, 306.65 K	0.0129
in THF, 311.25 K	0.0147
in THF, 316.15 K	0.0167
in THF, 321.25 K	0.0189
in THF, 326.55 K	0.0213
in THF, 331.55 K	0.024
in THF, 335.95 K	0.0274
in acetone, 292.15 K	0.00191
in acetone, 297.05 K	0.00225
in acetone, 302.05 K	0.00265
in acetone, 305.05 K	0.00293
in acetone, 307.95 K	0.00317
in acetone, 311.15 K	0.00356
in acetone, 313.85 K	0.00389
in acetone, 316.85 K	0.00407
in acetone, 319.35 K	0.00456
in acetone, 322.55 K	0.00492
in acetone, 326.55 K	0.0055
in acetonitrile, 292.15 K	0.000466
in acetonitrile, 297.05 K	0.000614
in acetonitrile, 302.05 K	0.000806
in acetonitrile, 305.05 K	0.000947
in acetonitrile, 307.95 K	0.0011
in acetonitrile, 311.15 K	0.00132
in acetonitrile, 313.85 K	0.00147
in acetonitrile, 316.85 K	0.0017
in acetonitrile, 319.35 K	0.00192
in acetonitrile, 322.55 K	0.00225
in acetonitrile, 326.55 K	0.0027
in acetonitrile, 331.55 K	0.00336
in acetonitrile, 335.95 K	0.00411
in dichloromethane, 292.15 K	0.00692
in dichloromethane, 297.05 K	0.00849
in dichloromethane, 301.95 K	0.00981
in dichloromethane, 306.65 K	0.0114
in dichloromethane, 311.25 K	0.0134
in ethanol, 292.15 K	0.000194
in ethanol, 297.05 K	0.000289
in ethanol, 302.05 K	0.000428
in ethanol, 305.05 K	0.000544
in ethanol, 307.95 K	0.000657
in ethanol, 311.15 K	0.000847
in ethanol, 313.85 K	0.00103
in ethanol, 316.85 K	0.00126
in ethanol, 319.35 K	0.00153
in ethanol, 322.55 K	0.00189
in ethanol, 326.55 K	0.00247
in ethanol, 331.55 K	0.00342
in ethanol, 335.95 K	0.00452
in ethyl acetate, 292.15 K	0.00273
in ethyl acetate, 297.05 K	0.00319
in ethyl acetate, 302.05 K	0.00371
in ethyl acetate, 305.05 K	0.00405
in ethyl acetate, 307.95 K	0.00444
in ethyl acetate, 311.15 K	0.00485
in ethyl acetate, 313.85 K	0.00525
in ethyl acetate, 316.85 K	0.00565
in ethyl acetate, 319.35 K	0.00608
in ethyl acetate, 322.55 K	0.00655
in ethyl acetate, 326.55 K	0.00732
in ethyl acetate, 331.55 K	0.0083
in ethyl acetate, 335.95 K	0.00924
in isopropanol, 292.15 K	0.000395
in isopropanol, 297.05 K	0.000539
in isopropanol, 302.05 K	0.000733
in isopropanol, 305.05 K	0.000877
in isopropanol, 307.95 K	0.00106
in isopropanol, 311.15 K	0.00126
in isopropanol, 313.85 K	0.00145
in isopropanol, 316.85 K	0.00172
in isopropanol, 319.35 K	0.00198
in isopropanol, 322.55 K	0.00234
in isopropanol, 326.55 K	0.00288
in isopropanol, 331.55 K	0.00371
in isopropanol, 335.95 K	0.00461
in methanol, 292.15 K	0.000163
in methanol, 297.05 K	0.000225
in methanol, 301.95 K	0.000284
in methanol, 306.65 K	0.000316
in methanol, 311.25 K	0.0004
in methanol, 316.15 K	0.000469
in methanol, 321.25 K	0.00062
in methanol, 326.55 K	0.000788
in methanol, 331.55 K	0.000921
in methanol, 335.95 K	0.00106
in n-propanol, 292.15 K	0.000546
in n-propanol, 297.05 K	0.00061
in n-propanol, 301.95 K	0.000782
in n-propanol, 306.65 K	0.000892
in n-propanol, 311.25 K	0.00114
in n-propanol, 316.15 K	0.00134
in n-propanol, 321.25 K	0.00175
in n-propanol, 326.55 K	0.00214
in n-propanol, 331.55 K	0.00251
in n-propanol, 335.95 K	0.00317
in toluene, 292.15 K	0.00373
in toluene, 297.05 K	0.00456
in toluene, 302.05 K	0.00554
in toluene, 305.05 K	0.00624
in toluene, 307.95 K	0.0069
in toluene, 311.15 K	0.00782
in toluene, 313.85 K	0.00858
in toluene, 316.85 K	0.0096
in toluene, 319.35 K	0.0103
in toluene, 322.55 K	0.0116
in toluene, 326.55 K	0.0134
in toluene, 331.55 K	0.0158
in toluene, 335.95 K	0.0181

Source: BigSolDB 2.1
